# Measurements published in patent US20200165194A1, “ADDITIVE COMPOSITION FOR CULTURE MEDIUM, ADDITIVE COMPOUND FOR CULTURE MEDIUM, AND METHOD FOR CULTURE OF CELLS OR TISSUE USING SAME” (NISSAN CHEMICAL CORPORATION, priority 2017, published 2020).
# Read-outs that look alike come from different tables or passages of the source.
# Experiments:
# [1] = tested on: SKOV3 cells (human ovarian cancer-derived cell line); assay: Cell proliferation activity in three-dimensional medium FCeM, ATP assay (Experimental Example 1); format: cell-based; settings: SKOV3, 3D medium FCeM, 4 days, DMSO control = 100%, average of two tests; for proliferation rate (%): compound 5 μM
# Procedure: A cell proliferation promoting effect when the compound to be used in the present invention was added to a three-dimensional medium was studied. Specifically, precultured (adhesion cultured) SKOV3 cells (human ovarian cancer-derived cell line) were recovered and suspended in a three-dimensional cell culture medium (“FCeM (registered trade mark)” (Nissan chemical corporation)) to prepare a cell suspension. […] The cell suspension seeded in the plate was stood overnight at 37° C., 5% CO2. Then, a DMSO diluted solution (4.44 μL) of the compound to be used in the present invention was added at a final concentration of 5 μM (or two steps of […] and 10 μM) (no stirring after addition). After addition of each compound, the mixtures were stood for 4 days at 37° C., 5% CO2. […] The luminescence intensity (RLU value) was measured by FlexStation3 (manufactured by Molecular Devices), and cell proliferation was evaluated.
# The proliferation rate was calculated based on the control (cells added with DMSO without containing the compound to be used in the present invention) as the standard (100%). The values shown in the tables are average values of the results of two tests.
# [2] = tested on: human ovarian cancer cell line SKOV3; assay: Action on SKOV3 cell-2: 3D (deacylated gellan gum) and 2D culture, EGF medium, ATP assay (Experimental Example 3); settings: for relative value of RLU (number of viable cells) / viability at 1 µM / viability at 5 µM / viability at 10 µM / viability at 20 µM: 4 days, compound non-addition = 100%; for viability at 1 µM / viability at 5 µM / viability at 10 µM / viability at 20 µM: Homo sapiens, SK-OV-3, 96 h
# Procedure: According to the method of patent document 1 (WO 2014/017513), a composition of McCoy's 5a medium (manufactured by Sigma-Aldrich) containing 0.015% (w/v) deacylated gellan gum (KELCOGEL CG-LA, manufactured by Sansho Co., Ltd.) and 15% (v/v) FBS, 30 ng/mL human EGF (manufactured by PEPROTECH) was prepared using FCeM-series Preparation Kit (manufactured by Wako Pure Chemical Industries, Ltd.). In a single layer culture, a non-addition medium composition not containing deacylated gellan gum was prepared. Then, human ovarian cancer cell line SKOV3 (manufactured by DS PHARMA BIO MEDICAL) was suspended in the above-mentioned medium composition added with deacylated gellan gum, and dispensed into the wells of a 384 well flat bottom Ultr-low Attachment surface microplate (manufactured by Corning Incorporated, #3827) at 1000 cells/36 μL/well (three-dimensional culture (3D)). In a single layer culture (2D), human ovarian cancer cell line SKOV3 was suspended in the above-mentioned medium composition not containing deacylated gellan gum, and dispensed into the wells of a 384 well flat bottom microplate (manufactured by Corning Incorporated, #3712) at 400 cells/36 μL per well. After dispensing, the compound to be used in the present invention dissolved in dimethyl sulfoxide (DMSO) was added by 4 μL each at a final concentration of 0, 1, 5, 10, 20 μM, and continuously cultured for 4 days. Each plate was cultured in a standing state in a CO2 incubator (37° C., 5% CO2) for 4 days. An ATP reagent (40 μL) (CellTiter-Glo (registered trade mark) Luminescent Cell Viability Assay, manufactured by Promega) was added to the culture medium on day 4, and the mixture was stirred by a plateshaker (manufactured by AS ONE Corporation, Micro plate mixer NS-P) at room temperature for 15 min. The luminescence intensity (RLU value) was measured by EnSpire (manufactured by Perkin Elmer) and the luminescence value of the medium alone was subtracted to measure the number of viable cells.
# [3] = single layer culture (2D) of SKOV3 cells
# [4] = three-dimensional culture (3D) of SKOV3 cells
compound,measurement,setting,value
CCC(=NNC(=O)CNc1ccccc1C)c1c(O)cc(O)c(C)c1O [k-3:H-2],proliferation rate (%),[1],117.84%
Cc1ccccc1NCC(=O)NN=C(CC(C)C)c1ccc(O)c(C)c1O [k-5:H-2],proliferation rate (%),[1],133.96%
CCOc1ccc(NCC(=O)NN=C(CC)c2ccc(O)c(C)c2O)cc1 [k-1:H-9],proliferation rate (%),[1],95.96%
CCC(=NNC(=O)CNc1ccc(O)cc1)c1ccc(O)c(C)c1O [k-1:D-2],relative value of RLU (number of viable cells),"[2]; 2D single layer culture, 1 μM",101%
same,relative value of RLU (number of viable cells),"[2]; 2D single layer culture, 5 μM",94%
same,relative value of RLU (number of viable cells),"[2]; 2D single layer culture, 10 μM",82%
same,relative value of RLU (number of viable cells),"[2]; 2D single layer culture, 20 μM",59%
same,relative value of RLU (number of viable cells),"[2]; 3D culture (deacylated gellan gum), 1 μM",116%
same,relative value of RLU (number of viable cells),"[2]; 3D culture (deacylated gellan gum), 5 μM",129%
same,relative value of RLU (number of viable cells),"[2]; 3D culture (deacylated gellan gum), 10 μM",143%
same,relative value of RLU (number of viable cells),"[2]; 3D culture (deacylated gellan gum), 20 μM",126%
same,cell proliferation promoting effect (in words),[2]; [3],a favorable cell proliferation promoting effect was not observed
same,cell proliferation promoting effect (in words),[2]; [4],exhibited cell proliferation promoting effect at a wide concentration range
CC/C(=N\CC(=O)OCc1ccccc1)c1ccc(O)c(C)c1O [k-1:A-2],proliferation rate (%) (5 μM),[1],118.8%
same,proliferation rate (%) (10 μM),[1],129.4%
CCC(=NNC(=O)CNc1cccc(C)c1)c1c(O)cc(O)c(C)c1O [k-3:H-3],proliferation rate (%),[1],134.65%
CCC(=NNC(=O)CNc1ccc(C)cc1)c1ccc(O)c(C)c1O [k-1:H-4],proliferation rate (%),[1],105.07%
CC(=NNC(=O)CNc1cccc2ccccc12)c1ccc(O)c(C)c1O [k-2:H-6],proliferation rate (%),[1],116.79%
CC/C(=N\NC(=O)OCc1cccc(O)c1)c1ccc(O)c(C)c1O [k-1:N-1],viability at 1 µM,"[2]; read-out: relative value of RLU (number of viable cells), 2D single layer culture, 1 μM",101%
same,viability at 5 µM,"[2]; read-out: relative value of RLU (number of viable cells), 2D single layer culture, 5 μM",94%
same,viability at 10 µM,"[2]; read-out: relative value of RLU (number of viable cells), 2D single layer culture, 10 μM",89%
same,viability at 20 µM,"[2]; read-out: relative value of RLU (number of viable cells), 2D single layer culture, 20 μM",84%
same,viability at 1 µM,"[2]; read-out: relative value of RLU (number of viable cells), 3D culture (deacylated gellan gum), 1 μM",101%
same,viability at 5 µM,"[2]; read-out: relative value of RLU (number of viable cells), 3D culture (deacylated gellan gum), 5 μM",134%
same,viability at 10 µM,"[2]; read-out: relative value of RLU (number of viable cells), 3D culture (deacylated gellan gum), 10 μM",169%
same,viability at 20 µM,"[2]; read-out: relative value of RLU (number of viable cells), 3D culture (deacylated gellan gum), 20 μM",186%
same,cell proliferation promoting effect (in words),[2]; [3],a favorable cell proliferation promoting effect was not observed
same,cell proliferation promoting effect (in words),[2]; [4],exhibited cell proliferation promoting effect at a wide concentration range
CCOc1ccc(NCC(=O)NN=C(CC)c2c(O)cc(O)c(C)c2O)cc1 [k-3:H-9],proliferation rate (%),[1],129.93%
CCC(=NNC(=O)CNc1ccc(C)cc1)c1c(O)cc(O)c(C)c1O [k-3:H-4],proliferation rate (%),[1],135.5%
CCC(Nc1ccccc1)C(=O)NN=C(C)c1ccc(O)c(C)c1O (centres unmarked) [k-2:H-7],proliferation rate (%),[1],201.93%
CCC(=NNC(=O)CNc1cccc2ccccc12)c1c(O)cc(O)c(C)c1O [k-3:H-6],proliferation rate (%),[1],134.6%
CC(=NNC(=O)CNc1ccc(C)cc1)c1ccc(O)c(C)c1O [k-2:H-4],proliferation rate (%),[1],128.2%
CC(=NNC(=O)CNc1ccccc1)c1ccc(O)c(C)c1O [k-2:H-1],proliferation rate (%),[1],184.61%
CC(=NNC(=O)CNc1cccc(C)c1)c1ccc(O)c(C)c1O [k-2:H-3],proliferation rate (%),[1],139.33%
Cc1c(O)ccc(C(CC(C)C)=NNC(=O)CNc2ccccc2)c1O [k-5:H-1],proliferation rate (%),[1],148.88%
CC/C(=N\C(=O)Nc1ccccc1)c1ccc(O)c(C)c1O [k-1:A-5],proliferation rate (%) (5 μM),[1],113%
same,proliferation rate (%) (10 μM),[1],124.3%
CC(=NNC(=O)CNc1ccccc1C)c1ccc(O)c(C)c1O [k-2:H-2],proliferation rate (%),[1],131.13%
Cc1ccc(NCC(=O)NN=C(CC(C)C)c2ccc(O)c(C)c2O)cc1 [k-5:H-4],proliferation rate (%),[1],114.76%
CCC(=NNC(=O)CNc1cccc(C)c1)c1ccc(O)c(C)c1O [k-1:H-3],proliferation rate (%),[1],168.98%
CCOC(=O)C/N=C(\CC)c1ccc(O)c(C)c1O [k-1:A-1],proliferation rate (%) (5 μM),[1],119.1%
same,proliferation rate (%) (10 μM),[1],119.4%
CCC(=NNC(=O)CNc1cccc2ccccc12)c1ccc(O)c(C)c1O [k-1:H-6],proliferation rate (%),[1],125.68%
CCC(=NNC(=O)CNc1ccc(F)cc1)c1ccc(O)c(C)c1O [k-1:H-5],proliferation rate (%),[1],154.19%
CCOc1ccc(NCC(=O)NN=C(C)c2ccc(O)c(C)c2O)cc1 [k-2:H-9],proliferation rate (%),[1],131.36%
Cc1c(O)ccc(C(CC(C)C)=NNC(=O)CNc2ccc(F)cc2)c1O [k-5:H-5],proliferation rate (%),[1],145.4%
